{"source": "patent US20260158014A1", "about": "“METHODS OF ADMINISTERING VOXELOTOR” (Global Blood Therapeutics, Inc., priority 2021, published 2026)", "key": {"[1]": {"experiment": "Effect of food (high-fat, high-calorie meal)", "type": "in vivo", "details": "high-calorie meal vs fasted"}, "[2]": {"experiment": "Probe-substrate DDI study: voxelotor exposure and safety in healthy subjects", "type": "in vivo, human", "method": "The effect of voxelotor on the pharmacokinetics (PK) of a single dose of caffeine, warfarin sodium, omeprazole, and midazolam hydrochloride, which are probe substrates for cytochrome P450 (CYP)1A2, CYP2C9, CYP2C19, and CYP3A4, respectively, were studied in healthy subjects. During Period 1, subjects received a single dose of caffeine 100 mg, warfarin sodium 10 mg+vitamin K 10 mg, omeprazole 20 mg, and midazolam hydrochloride 2 mg on Day 1. During Period 2, subjects received voxelotor 900 mg QD on Days 1 and 2 followed by 600 mg QD on Day 3, a single dose of caffeine 100 mg, warfarin sodium 10 mg+vitamin K 10 mg, omeprazole 20 mg, and midazolam hydrochloride 2 mg on Day 4, and voxelotor 600 mg QD on Days 4 through 7.\nWhole blood and plasma concentrations of voxelotor and plasma concentrations of caffeine, paraxanthine, S-warfarin, omeprazole, 5-hydroxyomeprazole, midazolam, and 1-hydroxymidazolam were determined using validated assays."}, "[3]": {"biological_target": "OAT1 (Homo sapiens, UniProt Q4U2R8)", "experiment": "In vitro transporter study", "type": "in vitro ADME"}, "[4]": {"system": "patients with SCD aged 4 to 11 years", "experiment": "Open-label Phase 2 trial (part C): safety assessment (TEAEs)"}, "[5]": {"biological_target": "OATP1A2 (Homo sapiens, UniProt P46721)", "experiment": "In vitro transporter study", "type": "in vitro ADME"}, "[6]": {"system": "patients with SCD", "experiment": "HOPE trial: safety", "type": "in vivo, human", "method": "The safety of OXBRYTA was evaluated in the HOPE trial based on data from 88 patients with SCD who received OXBRYTA 1,500 mg and 91 patients who received placebo orally once daily [see Clinical Studies (14.1)]. Seventy-four patients received OXBRYTA 1,500 mg once daily for ≥24 weeks, 65 patients for ≥48 weeks, and 63 patients completed the 72-week treatment period.\nIn patients who received OXBRYTA 1,500 mg once daily, the median age was 24 years (range:12 to 59 years); 65% female; 66% Black or African American and 23% Arab/Middle Eastern; and 65% receiving hydroxyurea at baseline."}, "[7]": {"system": "pregnant rats", "experiment": "Pre- and postnatal development study in rats", "type": "in vivo, rat", "method": "In a pre- and postnatal development study, voxelotor was administered orally to pregnant rats at 15, 50 and 250 mg/kg/day (gestation day 6 through lactation day 20). Maternal gestational body weights were decreased at 250 mg/kg/day, which continued to the end of lactation."}, "[8]": {"biological_target": "T1, CYP2C8 (Homo sapiens, UniProt P10632)", "T1 construct": "endogenous in cells; host or cells: human subjects (in vivo)", "experiment": "Effect of voxelotor on CYP450 enzymes in vivo: CYP2C8"}, "[9]": {"biological_target": "CYP3A4 (Homo sapiens, UniProt P08684)", "experiment": "Clinical DDI: strong CYP3A4 inhibitor itraconazole on voxelotor", "type": "in vivo", "set-up": "host or cells: Simcyp PBPK simulation", "details": "healthy subjects"}, "[10]": {"biological_target": "MATE2-K (Homo sapiens, UniProt Q86VL8)", "experiment": "In vitro transporter study", "type": "in vitro ADME"}, "[11]": {"experiment": "Voxelotor in milk of lactating rats", "type": "in vivo, rat"}, "[12]": {"system": "CYP3A4, CYP3A5, CYP2B6, CYP2C19, CYP2C9, UGT1A1, and UGT1A9", "experiment": "Metabolism, in vitro and in vivo studies", "type": "in vitro ADME"}, "[13]": {"biological_target": "MATE1 (Homo sapiens, UniProt Q96FL8)", "experiment": "In vitro transporter study", "type": "in vitro ADME"}, "[14]": {"experiment": "PK in subjects with renal impairment", "type": "in vivo, human", "method": "Following a single 900 mg dose of voxelotor, whole blood exposures in subjects with severe renal impairment (eGFR <30 mL/min/1.73 m^2) were 25% lower compared to healthy controls."}, "[15]": {"experiment": "PK in subjects with hepatic impairment", "type": "in vivo, human"}, "[16]": {"biological_target": "hemoglobin S (HbS) (Homo sapiens, UniProt P68871+P69905, E7V)", "experiment": "HbS binding and polymerization inhibition"}, "[17]": {"biological_target": "OATP1B3 (Homo sapiens, UniProt Q9NPD5)", "experiment": "In vitro transporter study", "type": "in vitro ADME"}, "[18]": {"details": "4 to 11 years, n=45, listed as OXBRYTA"}}}
{"smiles": "CC(C)n1nccc1-c1ncccc1COc1cccc(O)c1C=O", "note": "[voxelotor, 2-hydroxy-6-((2-(1-isopropyl-1H-pyrazol-5-yl)pyridin-3-yl)methoxy)benzaldehyde]", "values": [{"measurement": "increase in AUC with food, plasma", "setting": "[1]", "result": 42, "unit": "%"}, {"measurement": "increase in AUC with food, whole blood", "setting": "[1]", "result": 42, "unit": "%"}, {"measurement": "increase in Cmax with food, plasma", "setting": "[1]", "result": 95, "unit": "%"}, {"measurement": "increase in Cmax with food, whole blood", "setting": "[1]", "result": 45, "unit": "%"}, {"measurement": "safety and tolerability alone and with probe substrates", "setting": "[2]", "result": "safe and well tolerated"}, {"measurement": "OAT1 inhibition", "setting": "[3]", "result": "not an inhibitor"}, {"measurement": "Any drug-related TEAE", "setting": "[4]; 4-11 years, n=45, week 24", "result": "22 (48.9) n (%)"}, {"measurement": "Drug-related AE: Abdominal pain", "setting": "[4]; 4-11 years, n=45, week 24", "result": "4 (8.9) n (%)"}, {"measurement": "Drug-related AE: Diarrhea", "setting": "[4]; 4-11 years, n=45, week 24", "result": "5 (11.1) n (%)"}, {"measurement": "Drug-related AE: Headache", "setting": "[4]; 4-11 years, n=45, week 24", "result": "2 (4.4) n (%)"}, {"measurement": "Drug-related AE: Hypersplenism", "setting": "[4]; 4-11 years, n=45, week 24", "result": "2 (4.4) n (%)"}, {"measurement": "Drug-related AE: Pyrexia", "setting": "[4]; 4-11 years, n=45, week 24", "result": "2 (4.4) n (%)"}, {"measurement": "Drug-related AE: Rash", "setting": "[4]; 4-11 years, n=45, week 24", "result": "5 (11.1) n (%)"}, {"measurement": "Drug-related AE: Transaminases increased", "setting": "[4]; 4-11 years, n=45, week 24", "result": "4 (8.9) n (%)"}, {"measurement": "Drug-related AE: Vomiting", "setting": "[4]; 4-11 years, n=45, week 24", "result": "5 (11.1) n (%)"}, {"measurement": "tolerability of weight-based dosing", "setting": "[4]; 4 to 11 years, median exposure 43.3 weeks", "result": "well tolerated"}, {"measurement": "deaths", "setting": "[4]; 4 to 11 years, n=45", "result": "no deaths"}, {"measurement": "drug-related TEAE diarrhea, patients", "setting": "[4]; 4 to 11 years, n=45", "result": 11, "unit": "%"}, {"measurement": "drug-related TEAE rash, patients", "setting": "[4]; 4 to 11 years, n=45", "result": 11, "unit": "%"}, {"measurement": "drug-related TEAE vomiting, patients", "setting": "[4]; 4 to 11 years, n=45", "result": 11, "unit": "%"}, {"measurement": "pyrexia, patients (non-SCD related TEAE / adverse reaction)", "setting": "[4]; 4 to 11 years, n=45", "result": 35.6, "unit": "%"}, {"measurement": "rash, patients (non-SCD related TEAE / adverse reaction)", "setting": "[4]; 4 to 11 years, n=45", "result": 20, "unit": "%"}, {"measurement": "vomiting, patients (non-SCD related TEAE / adverse reaction)", "setting": "[4]; 4 to 11 years, n=45", "result": 33.3, "unit": "%"}, {"measurement": "pyrexia, patients (non-SCD related TEAE / adverse reaction)", "setting": "[4]; [18]", "result": 36, "unit": "%"}, {"measurement": "vomiting, patients (non-SCD related TEAE / adverse reaction)", "setting": "[4]; [18]", "result": 33, "unit": "%"}, {"measurement": "abdominal pain, patients (adverse reaction)", "setting": "[4]; 4 to <12 years, n=45", "result": 18, "unit": "%"}, {"measurement": "diarrhea, patients (adverse reaction)", "setting": "[4]; 4 to <12 years, n=45", "result": 18, "unit": "%"}, {"measurement": "headache, patients (adverse reaction)", "setting": "[4]; 4 to <12 years, n=45", "result": 18, "unit": "%"}, {"measurement": "patients who discontinued voxelotor due to adverse events", "setting": "[4]; of 45 patients, 2 drug-related, 2 unrelated", "result": 4, "unit": "patients"}, {"measurement": "substrate of OATP1A2", "setting": "[5]", "result": "not a substrate"}, {"measurement": "serious adverse reactions, patients", "setting": "[6]; 1,500 mg once daily, 3/88", "result": 3, "unit": "%"}, {"measurement": "permanent discontinuation due to an adverse reaction (Grades 1-4), patients", "setting": "[6]; 1,500 mg once daily, 4/88", "result": 5, "unit": "%"}, {"measurement": "Adverse reaction: Abdominal Pain", "setting": "[6]; 1,500 mg, N=88", "result": 23, "unit": "%"}, {"measurement": "Adverse reaction: Diarrhea", "setting": "[6]; 1,500 mg, N=88", "result": 23, "unit": "%"}, {"measurement": "Adverse reaction: Headache", "setting": "[6]; 1,500 mg, N=88", "result": 32, "unit": "%"}, {"measurement": "Adverse reaction: Nausea", "setting": "[6]; 1,500 mg, N=88", "result": 19, "unit": "%"}, {"measurement": "Adverse reaction: Pyrexia", "setting": "[6]; 1,500 mg, N=88", "result": 15, "unit": "%"}, {"measurement": "Adverse reaction: Rash", "setting": "[6]; 1,500 mg, N=88", "result": 15, "unit": "%"}, {"measurement": "dosage modifications (dose reduction or dosing interruption) due to an adverse reaction, patients", "setting": "[6]; 42/88", "result": 48, "unit": "%"}, {"measurement": "maternal gestational body weights", "setting": "[7]; 250 mg/kg/day, gestation day 6 through lactation day 20", "result": "decreased"}, {"measurement": "findings in offspring", "setting": "[7]; maternal dose 250 mg/kg/day", "result": "reduced survival and reduced body weights"}, {"measurement": "exposure at 250 mg/kg/day relative to exposure in patients at recommended dose", "setting": "[7]; maternal dose with offspring effects", "result": "approximately 2.8 times"}, {"measurement": "CYP2C8 inhibition in vivo", "setting": "[8]", "result": "not"}, {"measurement": "increase of voxelotor AUC with itraconazole", "setting": "[9]", "result": 11, "unit": "%"}, {"measurement": "MATE2-K inhibition", "setting": "[10]", "result": "not an inhibitor"}, {"measurement": "presence in milk", "setting": "[11]; lactating rats", "result": "detected in milk"}, {"measurement": "plasma concentrations relative to concentration in milk", "setting": "[11]; rats", "result": "higher"}, {"measurement": "enzymes mediating metabolism", "setting": "[12]", "result": "CYP3A4, CYP3A5, CYP2B6, CYP2C19, CYP2C9, UGT1A1, and UGT1A9"}, {"measurement": "MATE1 inhibition", "setting": "[13]", "result": "not an inhibitor"}, {"measurement": "effect of renal function on excretion", "setting": "[14]; human, in vivo", "result": "no clinically significant effect"}, {"measurement": "unbound plasma concentrations, severe renal impairment vs healthy controls", "setting": "[14]; single 900 mg dose", "result": "comparable"}, {"measurement": "whole blood exposures lower in severe renal impairment vs healthy controls", "setting": "[14]; single 900 mg dose, eGFR <30 mL/min/1.73 m^2", "result": 25, "unit": "%"}, {"measurement": "whole blood AUC higher vs normal hepatic function, mild hepatic impairment", "setting": "[15]; Child Pugh A", "result": 14, "unit": "%"}, {"measurement": "whole blood AUC higher vs normal hepatic function, moderate hepatic impairment", "setting": "[15]; Child Pugh B", "result": 15, "unit": "%"}, {"measurement": "whole blood AUC higher vs normal hepatic function, severe hepatic impairment", "setting": "[15]; Child Pugh C", "result": 90, "unit": "%"}, {"measurement": "HbS polymerization", "setting": "[16]", "result": "dose-dependent inhibition"}, {"measurement": "OATP1B3 inhibition", "setting": "[17]", "result": "not an inhibitor"}, {"measurement": "substrate of OATP1B3", "setting": "[17]", "result": "not a substrate"}]}
